Drawing on EPA's ToxValDB 9.5 (doi:10.2903/j.efsa.2013.3235), this text covers NOEL, LD50 and LC50 for four compounds.

Values joined by “and” are separate entries in the source; they are usually repeats but may differ in a detail not shown here. Equal entries are not always repeated.

The subject of one data set is Rattus norvegicus. Particulars: for LD50: acute, mortality.
Another data set concerns Canidae. Particulars: reproduction developmental; duration: 1 years; Dog Other.
For another data set, the system named is Anas platyrhynchos. To be noted: short-term; oral; feed.
The next data set relates to Coturnix japonica. Particulars: acute; oral; mortality.
The subject of the next data set is Mus musculus. Particulars: acute; oral; mortality.

For the compound `O=C([O-])[C@H](O)[C@@H](O)[C@H](O)[C@H](O)CO.O=C([O-])[C@H](O)[C@@H](O)[C@H](O)[C@H](O)CO.[Cu+2]` [Copper gluconate], the NOEL turned out to be 27 mg/kg-day in the data set with Rattus norvegicus (chronic) and 15 mg/kg-day with Canidae.

In general, LD50 refers to the dose at which mortality reaches 50%. High values mean a less toxic substance, low ones a more toxic substance. Regarding `O.O.[Cu]` [Copper hydroxide (Cu(OH)2)], the LD50 in the data set with Rattus norvegicus (F) is 679 mg/kg; in the data set on Rattus norvegicus (M) it was 736 mg/kg; in the data set on Rattus norvegicus, 439 mg/kg and 281 mg/kg; with Colinus virginianus (acute, oral, mortality), 223 mg/kg; with Coturnix japonica it was 556 mg/kg. Further, the NOEL with Anas platyrhynchos is 216 mg/kg-day and 191 mg/kg-day; in the data set with Colinus virginianus (reproduction developmental) it was 5.05 mg/kg-day and 5.12 mg/kg-day; in the data set with Colinus virginianus (short-term, oral, diet), 124 mg/kg-day and 135 mg/kg-day.

In the case of `[Cu+].[Cu+].[O-2]` [Cuprous oxide], the LD50 came to 261 mg/kg with Rattus norvegicus (oral) and 1180 mg/kg with Coturnix japonica. This compound also gave an NOEL with Colinus virginianus (short-term, oral, diet) of 31.9 mg/kg-day.

On to `[Cl-].[Cu+2].[Cu+2].[OH-].[OH-].[OH-]` [Dicopper chloride trihydroxide], for which the LD50 in the data set on Rattus norvegicus (F) was 548 mg/kg; with Rattus norvegicus (M), 693 mg/kg; in the data set with Rattus norvegicus it was 1080 mg/kg and 807 mg/kg; with Colinus virginianus (acute, oral, mortality), 511 mg/kg; in the data set on Mus musculus, 171 mg/kg. In the data set with Colinus virginianus (acute, oral, diet, mortality), this compound came in with an LC50 of 333 mg/kg-day.
